Read-outs that look alike come from different tables or passages of the source.
Tests used:
[1] = tested on: MCF-12A cells (non-cancerous breast cells); experiment: Cell proliferation evaluation (label-free image cell counting); format: cell-based, human; conditions: for IC50: suppression of cell proliferation, n = 4, read-out: IC50 against MCF-12A cells; for Selectivity Index for MDA-MB-231/R: IC50 MCF-12A divided by IC50 MDA-MB-231/R
Method: (§1) The human TNBC MDA-MB-231 cell line (ATCC HTB-26) and the non-cancerous breast cell line MCF-12A (ATCC CRL-10782) were purchased from ATCC (Manassas, VA, USA). DMEM-HG cell growth medium supplemented with 10% (v/v) FBS was used to culture breast cancer cells. To establish a cisplatin-resistant cell strain, MDA-MB-231 cells were continuously treated with increasing concentrations of cisplatin (up to 2 µM) during a period of 6 months. When a consistent cell growth rate in the presence of cisplatin was achieved, these cells were named MDA-MB-231/R and stocked to assure the consistency of the phenotype for future use and experiments. All posterior experiments were performed within 10 passages to maintain the resistance while routinely growing the MDA-MB-231/R cell line in a cell culture medium without the addition of cisplatin. MCF-12A cells were cultured in DMEM/F12 medium supplemented with 100 ng/mL cholera toxin, 0.01 mg/mL bovine insulin, 20 ng/mL hEGF, 500 ng/mL hydrocortisone and 5% (v/v) horse serum. Cells were grown in monolayers in a sterile environment at 37 °C with a 5% CO2 humidified atmosphere. Under these conditions, the population doubling time was 25.5 ± 0.9 h and 30.6 ± 1.1 h for MDA-MB-231 and MDA-MB-231/R cells, respectively, and 20.6 ± 3.1 h for MCF-12A cells. The cell cultures were routinely screened for mycoplasma contamination, yielding negative results.
(§2) Cells were seeded in 96-well microplates at the cell density 1.5 × 10^4 cells/cm^2 (final volume 200 µL/well) and left 24 h to attach. Afterwards, the growth medium was replaced with the growth medium containing cisplatin (0.1–200 µM), Pd3Spd2 (0.3–200 µM), Pt3Spd2 (0.3–100 µM) and Pd2Spm (0.3–200 µM).
(§3) Cell proliferation was monitored with the direct image acquisition of cells on microplates at 0, 24, 48 and 72 h post-addition of the tested compounds using a LionheartFX automated microscope (BioTek, Winooski, VT, USA). Label-free kinetic 4× images were acquired and processed using Gen 5 Image Analysis software (BioTek, Winooski, VT, USA). Individual cells per image were identified and counted, and normalized cell growth (%) was calculated using the following formula: Ct=Number of Treated Cellst−Number of Treated Cells0/Number of Untreated Cellst−Number of Untreated Cells0×100 where C(t) is the percent of net cell growth over time, Number of Treated Cells(t) is the count of cells treated with drug at each time point, Number of Treated Cells(0) is the count cells treated with drug at time 0 h, Number of Untreated Cells(t) is the count of untreated (control) cells at each time point and Number of Untreated Cells(0) is the count of untreated (control) cells at time 0 h.
(§4) Data are expressed as the mean ± standard error of the mean (SEM). GraphPad Prism 7 Software (San Diego, CA, USA) was used, and the statistical analysis was performed using the two-tailed Student’s t-test. The half-maximal inhibitory concentration values (IC50) were calculated by interpolation from the nonlinear regression curves obtained from cell proliferation/cytotoxicity data using “log(inhibitor) versus the normalized response–variable slope equation”. A p-value lower than 0.05 was considered statistically significant.

[2] = tested on: MDA-MB-231/R cells (cisplatin-resistant); experiment: as above; format: cell-based, human; conditions: for concentration of maximum suppression of cell proliferation: MDA-MB-231/R; for IC50: suppression of cell proliferation, n = 4; for Resistance Index: IC50 MDA-MB-231/R divided by IC50 MDA-MB-231, cell proliferation assay
Method: as §1, §2, §3, §4

MDA-MB-231 cells [3] = experiment: as above; format: cell-based, human; conditions: for concentration of maximum suppression of cell proliferation: MDA-MB-231, 48 h
Method: as §1, §2, §3, §4

[4] = tested on: MDA-MB-231/R cells (cisplatin-resistant); experiment: MTT assay (cell viability); format: cell-based, human; conditions: for IC50: cell viability, MTT assay, n = 4
Method: (§5) The cells were harvested upon the addition of trypsin/EDTA solution, seeded in 96-well plates (1.5 × 10^4 cells/cm^2) and incubated at 37 °C. After allowing the cells to adhere for 24 h, the growth medium was replaced with the growth medium containing Pd3Spd2 (1–200 µM) or Pt3Spd2 (1–200 µM).
(§6) After each incubation period (24, 48 and 72 h), the cell viability was evaluated by the MTT [33] method. Briefly, a MTT solution (0.5 mg/mL in PBS) was added to each well after carefully removing the medium and allowed to incubate for 3 h at 37 °C; after which, the MTT was aspirated and, in order to dissolve the formazan crystals, 100 µL of DMSO were added. The optical density was measured at 570 nm.
as §4

MDA-MB-231 cells [5] = experiment: MTT assay (cell viability); format: cell-based, human; conditions: n = 4
Method: as §5, §6, §4

sarcoma = tested on: sarcoma; set-up: method as in earlier work; conditions: cited from earlier work
leukemic P388 cells = tested on: leukemic P388 cells; set-up: method as in doi:10.1016/j.ccr.2016.02.001; conditions: cited from earlier work
[6] = suppression of cell proliferation, 48 h incubation, n = 4, read-out: MDA-MB-231 IC50
[7] = IC50 MCF-12A divided by IC50 MDA-MB-231, 48 h
[8] = suppression of cell proliferation, 24 h incubation, n = 4, read-out: MDA-MB-231 IC50
[9] = suppression of cell proliferation, 72 h incubation, n = 4, read-out: MDA-MB-231 IC50

SMILES	IC50 ([1]; 48 h incubation) [µM]	concentration of maximum suppression of cell proliferation ([2]; 48 h) [µM]	IC50 ([2]; 48 h incubation) [µM]	concentration of maximum suppression of cell proliferation (MDA-MB-231 cells [3]) [µM]	IC50 (MDA-MB-231 cells [3]; [6]) [µM]	IC50 ([4]; 24 h incubation) [µM]	IC50 ([4]; 48 h incubation) [µM]	IC50 ([4]; 72 h incubation) [µM]	IC50 (MDA-MB-231 cells [5]; 24 h incubation) [µM]	IC50 (MDA-MB-231 cells [5]; 48 h incubation) [µM]	IC50 (MDA-MB-231 cells [5]; 72 h incubation) [µM]	Selectivity Index for MDA-MB-231 [1, 7]	IC50 ([2]; 24 h incubation) [µM]	IC50 ([2]; 72 h incubation) [µM]	IC50 (MDA-MB-231 cells [3]; [8]) [µM]	IC50 (MDA-MB-231 cells [3]; [9]) [µM]	further results
NCCCNCCCCNCCCN.[Cl][Pd][Cl].[Cl][Pd][Cl] [Pd2Spm, reference compound]	~90	30	11.6	30	7.9												concentrations required to suppress/modify MCF-12A cell proliferation ([1]; MCF-12A healthy breast cells, 48 h): above 40 μM; suppression of MCF-12A cell proliferation ([1]; MCF-12A, for 100 μM, 48 h): up to 60%
NCCCCNCCCN.NCCCCNCCCN.[Cl][Pd][Cl].[Cl][Pd][Cl].[Cl][Pd][Cl] [Pd3Spd2]	53	30	10.6	30	8.44	9.24	10.6	11.4	8.99	4.65	6.12	6.28	13.3	10.8	8.35	7.92	resistance index (abstract summary) ([4]; MDA-MB-231/R versus MDA-MB-231, over assays and incubation times): lower than 2.3; Selectivity Index for MDA-MB-231 ([1]; IC50 MCF-12A divided by IC50 MDA-MB-231, 24 h): 7.94; Selectivity Index for MDA-MB-231 ([1]; IC50 MCF-12A divided by IC50 MDA-MB-231, 72 h): 6.28; Selectivity Index for MDA-MB-231/R ([1]; 48 h): 4.99; Selectivity Index for MDA-MB-231/R ([1]; 72 h): 4.59; selectivity index for MDA-MB-231 cells (sensitive TNBC), over incubation times ([1]; MCF-12A versus MDA-MB-231, depending on the time of incubation (24-72 h)): > 6.28; selectivity index for MDA-MB-231/R cells (resistant TNBC), over incubation times ([1]; MCF-12A versus MDA-MB-231/R, depending on the time of incubation (24-72 h)): > 4.59; IC50 ([1]; 24 h incubation): 66.3 µM; IC50 ([1]; 72 h incubation): 49.7 µM; Resistance Index ([2]; 24 h): 1.6; Resistance Index ([2]; 48 h): 1.3; Resistance Index ([2]; 72 h): 1.4; concentrations that suppressed cell proliferation (MDA-MB-231 cells [3]; MDA-MB-231, 24-72 h, concentration-dependent): above 1 μM
O=[N+]([O-])[O-].O=[N+]([O-])[O-].[Pd+2].c1ccc(-c2ccccn2)nc1 [Pd(bpy)(ONO2)2]																	antitumor activity against sarcoma (sarcoma): effective antitumor agent; activity towards leukemic P388 cells (leukemic P388 cells): inactive
NCCCCNCCCN.NCCCCNCCCN.[Cl][Pt][Cl].[Cl][Pt][Cl].[Cl][Pt][Cl] [Pt3Spd2]			> 100		> 100	> 100	67.9	> 100	> 100	> 100	> 100		> 100	> 100	> 100	> 100	reduction of cell proliferation (MDA-MB-231 cells [3]; MDA-MB-231, only with concentrations above 100 μM): up to 25%; IC50 (MDA-MB-231 cells [3]; cell proliferation, depending on the incubation period (24, 48, 72 h), read-out: IC50 in MDA-MB-231 cells, over all incubation periods): > 100 µM
N.N.[Cl][Pt][Cl] [cisplatin, cis-dichlorodiammine platinum(II)]	1	200	32.4	30	1							1					

From PMC10145437, “Pd(II) and Pt(II) Trinuclear Chelates with Spermidine: Selective Anticancer Activity towards TNBC-Sensitive and -Resistant to Cisplatin” (Pharmaceutics, 2023)
